# Source: US12491182B2, “Polymorphs of triazole antifungal compound PC945” (Pulmocide Limited, priority 2019, dated 2025)
# Where two headings read alike, the source gives them in different places. Marks after values point to notes of the source that are not given here.
# Key:
# [1] = Equilibration of Forms 1 and 2, singularly and as mixtures, in MEK and THF alone and with 5% water; assay type: physicochemical; details: 5-10 °C, both equilibration temperatures
# Description: The influence of the initial polymorphic composition on the fate of samples was investigated by equilibration of the either the single polymorphs or an equal mixture of both in anhydrous MEK and THF as well as in the same solvents doped with 5% water.
# The results obtained (Table 13) reveal that in anhydrous media the two polymorphs retain their structural integrity, if present singularly (Table 13, Entries 1, 2, 4 and 5). […] (Table 13, Entry 4) which may be attributable to the presence of traces of moisture in a highly hygroscopic solvent.
# The results observed when 5% water was admixed to the two solvents indicate that the predominance of the two forms reversed under these conditions, taking kinetic factors into account. In aqueous MEK (5% water) the single polymorphs were again unchanged for the duration of the experiment (Table 13, Entries 7 and 8). In contrast, the binary polymorphic mixture converted into Form 1 in this medium (Table 13, Entry 9). In aqueous THF (5% water) the dominance of Form 1 as the most preferred polymorph was especially evident. In this environment the suspension of Form 1 remained unchanged (Table 13, Entry 10), consistent with the outcome observed for aq MEK under the same conditions.
# However, in THF doped with 5% water, both the suspension comprising the binary mixture, as well as that composed of the Form 2 polymorph alone, were transformed into suspensions containing only Form 1 (Table 13, Entries 11 and 12).
# Aspergillus fumigatus [2] = details: topical Compound I in combination with a known systemic triazole agent; in vitro human alveolus bilayer model; cited from earlier work
# [3] = Solubility of Compound I in MEK/water mixtures; assay type: physicochemical; details: 25 °C, organic solvent or mixture, thermodynamic from solid
# Description: (Table 12). It was observed that Form 2 integrity was maintained for at least 24 hours at the lower temperature until the water content exceeded 6%, despite an increase in solubility of Compound I from 19 to 30 mg/ml (data not shown).
# [4] = biological target: T1, Aspergillus fumigatus sterol 14α-demethylase CYP51A (Aspergillus fumigatus, UniProt Q4WNT5); details: cited from earlier work
# T1 sequence (Q4WNT5 1-515): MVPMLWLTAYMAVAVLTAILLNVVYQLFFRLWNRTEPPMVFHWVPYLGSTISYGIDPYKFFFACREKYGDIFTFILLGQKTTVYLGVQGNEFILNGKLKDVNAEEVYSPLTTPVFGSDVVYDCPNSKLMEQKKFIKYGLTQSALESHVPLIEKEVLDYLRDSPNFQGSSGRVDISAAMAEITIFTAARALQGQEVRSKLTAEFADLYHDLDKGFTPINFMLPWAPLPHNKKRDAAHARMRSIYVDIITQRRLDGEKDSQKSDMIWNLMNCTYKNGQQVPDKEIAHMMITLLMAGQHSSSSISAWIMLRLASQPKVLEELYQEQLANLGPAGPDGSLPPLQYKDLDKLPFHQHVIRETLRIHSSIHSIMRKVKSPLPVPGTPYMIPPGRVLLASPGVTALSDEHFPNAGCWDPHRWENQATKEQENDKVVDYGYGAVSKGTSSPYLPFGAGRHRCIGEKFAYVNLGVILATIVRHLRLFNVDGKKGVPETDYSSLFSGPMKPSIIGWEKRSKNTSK
# [5] = biological target: T2, Aspergillus fumigatus sterol 14α-demethylase CYP51B (Aspergillus fumigatus, UniProt E9QY26); details: cited from earlier work
# T2 sequence (E9QY26 1-524): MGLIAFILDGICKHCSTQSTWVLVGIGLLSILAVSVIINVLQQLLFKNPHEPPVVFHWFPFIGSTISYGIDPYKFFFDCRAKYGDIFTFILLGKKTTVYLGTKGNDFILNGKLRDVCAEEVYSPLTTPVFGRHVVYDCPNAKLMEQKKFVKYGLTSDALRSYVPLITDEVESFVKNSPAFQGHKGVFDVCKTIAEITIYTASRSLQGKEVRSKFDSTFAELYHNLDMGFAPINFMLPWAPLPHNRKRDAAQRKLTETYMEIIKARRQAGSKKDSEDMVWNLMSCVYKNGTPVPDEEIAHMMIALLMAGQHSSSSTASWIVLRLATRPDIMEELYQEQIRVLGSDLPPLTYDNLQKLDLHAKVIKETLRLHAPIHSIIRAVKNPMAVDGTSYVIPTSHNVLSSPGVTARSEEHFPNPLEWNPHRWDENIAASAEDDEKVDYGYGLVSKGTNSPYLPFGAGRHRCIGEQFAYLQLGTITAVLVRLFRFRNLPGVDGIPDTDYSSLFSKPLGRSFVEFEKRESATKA
# Aspergillus fumigatus [6] = details: topical Compound I in combination with a known systemic triazole agent; lungs of neutropenic, immunocompromised mice; cited from earlier work
# Candida auris isolates = details: isolates collected globally; cited from earlier work
# [7] = Solubility of Compound I in water; assay type: physicochemical
# Aspergillus fumigatus [8] = details: intranasal dosing, immunocompromised mice, repeat dosing; cited from earlier work
# [9] = Cross-seeding experiments of Forms 1 and 2 at 5, 25 and 50 °C, XRPD; assay type: physicochemical; details: 96 hr
# Description: (§1) X-Ray powder diffraction patterns were collected on a PANalytical diffractometer using Cu Kα radiation (45 kV, 40 mA), θ-θ goniometer, focusing mirror, divergence slit (½″), soller slits at both incident and divergent beam (4 mm) and a PIXcel detector. The software used for data collection was X′Pert Data Collector, version 2.2f and the data was presented using X′Pert Data Viewer, version 1.2d. XRPD patterns were acquired under ambient conditions via a transmission foil sample stage (polyimide—Kapton, 12.7 μm thickness film) under ambient conditions using a PANalytical X′Pert PRO. The data collection range was 2.994-35°2θ with a continuous scan speed of 0.202 s^−1.
# A mixture of Forms 1 and 2 (50% w/w) was prepared and a sample of the mixture (20 mg) was then suspended in a solvent system (50 vol, 1.0 mL) and shaken at different temperatures for 96 hr. The solids were filtered, air dried and analysed by XRPD. The results obtained (Table 8) reveal that, in all but one of the systems investigated (Entries 10-12), the mixture of polymorphic forms had turned over into Form 2 when maintained at both RT and 50° C. The transformation in propyl acetate was seen to be especially facile as Form 2 was also isolated from the suspension which had been maintained at 5° C. (Entry 1).
# [10] = Maturation of 1:1 suspensions of Forms 1 and 2 at varying temperatures, XRPD analysis; assay type: physicochemical
# Description: It has been determined that the crystalline states, referred to herein as Form 1 and Form 2, constitute an enantiotropic polymorphic pair. This property arises from a temperature dependency of their relative thermodynamic stabilities, whereby one of the polymorphs is the most thermodynamically stable manifestation of the material up to a characteristic (empirically determined) temperature; above which their order of stability is inverted. In the present instance suspensions comprising equal amounts of the two polymorphs were matured, in one of six different solvents, at 50° C., 70° C. and 135° C. (Table 6). In all experiments conducted at both 50° C. and 70° C. the 1:1 mixtures converted into suspensions containing only the Form 2 polymorph. In contrast, all of the mixtures maintained at a temperature of 135° C. were transformed into Form 1.
# as §1
# A mixture of equal amounts Forms 1 and 2 (100 mg) was charged to crystallisation tubes followed by the selected solvent. The suspensions were heated to the temperatures indicated (Table 6) for 72 hr, during which time samples were taken at 24 hr intervals Solids were isolated at the maturation temperature by filtration and then dried in vacuo at 45° C. for 20 hr. In two cases (Table 6, Entries 1 and 2) suspensions were retained at 135° C. which comprised Form I from the 24 hr time point to the conclusion of the experiment. In the remaining cases (Table 6, Entries 4-6) solutions had formed at 72 hr and solids were recovered by slight cooling, all of which were determined to be Form 1. Those maturated at lower temperatures all gave Form 2 within 24 hr.
smiles,measurement,setting,value
"[2H]c1c([2H])c(NC(=O)c2ccc(N3CCN(c4ccc(OC[C@@H]5CO[C@@](Cn6cncn6)(c6ccc(F)cc6F)C5)c(C)c4)CC3)cc2)c([2H])c([2H])c1F [Compound 2, 4-(4-(4-(((3R,5R)-5-((1H-1,2,4-triazol-1-yl)methyl)-5-(2,4-difluorophenyl)tetrahydrofuran-3-yl)methoxy)-3-methylphenyl)piperazin-1-yl)-N-(4-fluorophenyl-2,3,5,6-d4)benzamide, reference compound]",Form by XRPD Post Equilibration,[1]; MEK (anhydrous),2
same,Form by XRPD Post Equilibration,[1]; MEK/5% Water,2
same,Form by XRPD Post Equilibration,"[1]; THF (anhydrous), Form 1 input: some evidence of Form 2 at 10 °C",2
same,Form by XRPD Post Equilibration,[1]; THF/5% Water,1
"Cc1cc(N2CCN(c3ccc(C(=O)Nc4ccc(F)cc4)cc3)CC2)ccc1OC[C@@H]1CO[C@@](Cn2cncn2)(c2ccc(F)cc2F)C1 [Compound I, 4-(4-(4-(((3R,5R)-5-((1H-1,2,4-triazol-1-yl)methyl)-5-(2,4-difluorophenyl)tetrahydrofuran-3-yl)methoxy)-3-methylphenyl)piperazin-1-yl)-N-(4-fluorophenyl)benzamide]",anti-fungal effect of combination,Aspergillus fumigatus [2],synergistic anti-fungal effects
same,solubility,[3]; MEK with 8% water by volume,23 mg/mL
same,solubility,"[3]; MEK with water content rising up to 6% by volume, 25 °C (data not shown)",19 to 30 mg/mL
same,inhibition of sterol 14α-demethylase CYP51A,[4],potent inhibitor
same,inhibition of sterol 14α-demethylase CYP51B,[5],potent inhibitor
same,anti-fungal effect of combination,Aspergillus fumigatus [6],synergistic anti-fungal effects
same,"inhibition of Candida auris isolates, potency compared with azoles",Candida auris isolates,"more potent inhibitor than posaconazole, voriconazole and fluconazole"
same,solubility in water,[7],extremely low solubility
same,anti-fungal effects by biomarker analysis,Aspergillus fumigatus [8],accumulated upon repeat dosing and were persistent
Cc1cc(N2CCN(c3ccc(C(=O)Nc4ccc(F)cc4)cc3)CC2)ccc1OC[C@@H]1CO[C@@](Cn2cncn2)(c2ccc(F)cc2F)C1 [Forms 1 and 2],Polymorphic Form by XRPD,"[9]; PrOAc, 5 °C",2
same,Polymorphic Form by XRPD,"[9]; PrOAc, 25 °C",2
same,Polymorphic Form by XRPD,"[9]; PrOAc, 50 °C",2
same,Polymorphic Form by XRPD,"[9]; TBME, 25 °C",2
same,Polymorphic Form by XRPD,"[9]; TBME, 50 °C",2
same,Polymorphic Form by XRPD,"[9]; Toluene, 25 °C",2
same,Polymorphic Form by XRPD,"[9]; Toluene, 50 °C",2
same,Polymorph obtained at temp indicated,"[10]; decalin, 50 °C, XRPD after 72 hr",2
same,Polymorph obtained at temp indicated,"[10]; decalin, 70 °C, XRPD after 72 hr",2
same,Polymorph obtained at temp indicated,"[10]; decalin, 135 °C, 72 hr, dissolution occurred, solid obtained on slight cooling",1^b
same,Polymorph obtained at temp indicated,"[10]; diphenyl ether, 50 °C, XRPD after 72 hr",2
same,Polymorph obtained at temp indicated,"[10]; diphenyl ether, 70 °C, XRPD after 72 hr",2
same,Polymorph obtained at temp indicated,"[10]; diphenyl ether, 135 °C, 72 hr, dissolution occurred, solid obtained on slight cooling",1^b
same,enantiotropic transition point (temperature at which stability inverts),"[10]; from maturation of 1:1 mixtures at 50, 70 and 135 °C",70-135 °C
same,Polymorph obtained at temp indicated,"[10]; heptanol, 50 °C, XRPD after 72 hr",2
same,Polymorph obtained at temp indicated,"[10]; heptanol, 70 °C, XRPD after 72 hr",2
same,Polymorph obtained at temp indicated,"[10]; heptanol, 135 °C, 72 hr, dissolution occurred, solid obtained on slight cooling",1^b
same,Polymorph obtained at temp indicated,"[10]; mesitylene, 50 °C, XRPD after 72 hr",2
same,Polymorph obtained at temp indicated,"[10]; mesitylene, 70 °C, XRPD after 72 hr",2
same,Polymorph obtained at temp indicated,"[10]; mesitylene, 135 °C, XRPD after 72 hr",1
same,Polymorph obtained at temp indicated,"[10]; p-cymene, 50 °C, XRPD after 72 hr",2
same,Polymorph obtained at temp indicated,"[10]; p-cymene, 70 °C, XRPD after 72 hr",2
same,Polymorph obtained at temp indicated,"[10]; p-cymene, 135 °C, 72 hr, dissolution occurred, solid obtained on slight cooling",1^b
same,Polymorph obtained at temp indicated,"[10]; xylenes, 50 °C, XRPD after 72 hr",2
same,Polymorph obtained at temp indicated,"[10]; xylenes, 70 °C, XRPD after 72 hr",2
same,Polymorph obtained at temp indicated,"[10]; xylenes, 135 °C, XRPD after 72 hr",1
same,Form by XRPD Post Equilibration,"[1]; MEK (anhydrous), listed as 1 + 2",2
same,Form by XRPD Post Equilibration,[1]; MEK/5% Water,1
same,Form by XRPD Post Equilibration,"[1]; THF (anhydrous), Form 1 input: some evidence of Form 2 at 10 °C, listed as 1 + 2",2
same,Form by XRPD Post Equilibration,[1]; THF/5% Water,1
